According to ChEMBL document CHEMBL1201862, “PubChem BioAssay data set” (2004):
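Step 1: Grow cells in 96-well plates. Step 2: Expose to compound for 48 hours at 5 concentrations. Step 3: Interpolate endpoints linearly; if unreached, use highest concentration. The concentration for 50% growth inhibition is given as GI50.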 Calls of active or inactive are those of the source. No stated cut-off is given here; in the data, active = GI50 up to about 1.1 µM and inactive = higher.

Key:
Test in all cases: NCI tumour cell line growth inhibition, 48 h
[1] = system: RPMI-8226
[2] = system: DU-145
[3] = system: SF-539
[4] = system: MDA-MB-435
[5] = system: HCT-116
[6] = system: SF-268
[7] = system: M14
[8] = system: 786-0
[9] = system: SK-MEL-28
[10] = system: K562
[11] = system: SK-OV-3
[12] = system: COLO 205
[13] = system: NCI-H460
[14] = system: HT-29
[15] = system: HOP-62
[16] = system: Malme-3M
[17] = system: HL-60

Measured: GI50

Cc1ccccc1C1OC1C(=O)c1ccccc1N (stereo not drawn)
inactive: [1] 46.7 µM | [2] > 100 µM | [3] 29.9 µM | [4] 20.7 µM | [5] 44.1 µM | [6] > 100 µM | [7] 47.3 µM | [8] 59.4 µM | [9] > 100 µM | [10] 56.8 µM | [11] > 100 µM | [12] 87.3 µM | [13] 63.8 µM | [14] 45.3 µM

COc1cc2oc(=O)cc(C)c2c(OC)c1OC(C)=O
inactive: [1] > 100 µM | [15] > 100 µM | [2] > 100 µM | [4] > 100 µM | [5] > 100 µM | [16] > 100 µM | [6] > 100 µM | [7] > 100 µM | [8] > 100 µM | [9] > 100 µM | [10] > 100 µM | [11] > 100 µM | [12] > 100 µM | [14] > 100 µM

N#Cc1nc(/C=C/c2cccs2)oc1N
inactive: [1] 27.8 µM | [15] > 100 µM | [2] > 100 µM | [4] > 100 µM | [5] > 100 µM | [17] 12.6 µM | [6] > 100 µM | [7] 97.5 µM | [8] > 100 µM | [9] > 100 µM | [10] 82.4 µM | [11] > 100 µM | [14] > 100 µM

NC1=NS(=O)(=O)Nc2nc(-c3ccc(Cl)cc3)c(-c3ccc(Cl)cc3)nc21
inactive: [15] > 100 µM | [3] > 100 µM | [5] > 100 µM | [17] > 100 µM | [16] > 100 µM | [6] > 100 µM | [7] > 100 µM | [8] > 100 µM | [9] > 100 µM | [10] 34 µM | [12] > 100 µM | [13] > 100 µM | [14] > 100 µM

CCN(CC)CCCCC1CCN(CC(=O)N2c3ccccc3NC(=O)c3ccccc32)CC1
inactive: [1] > 100 µM | [15] > 100 µM | [3] > 100 µM | [5] > 100 µM | [17] > 100 µM | [16] 81.5 µM | [6] > 100 µM | [7] 19.4 µM | [8] > 100 µM | [9] > 100 µM | [10] > 100 µM | [11] > 100 µM | [12] > 100 µM | [14] 46.7 µM
